{"source": "patent US20040005354A1", "about": "“Oral trimethobenzamide formulations and methods” (King Pharmaceuticals, Inc., priority 2002, published 2004)", "key": {"[1]": {"assay": "Safety assessment (adverse events, laboratory tests) in the four-way crossover study", "type": "in vivo, human (healthy subjects)", "description": "Seventy-four healthy, non-smoking, male & female subjects, 18-65 years old were enrolled in this study. A total of 68 subjects completed all the requirements of the protocol. There were no enrollment violations. However, nine of the 74 subjects began the study during the third period of the initial group of subjects. All 74 subjects who received at least one dose of study medication were included in the safety analysis.\nThis study was a single center, randomized, open-label, 4-way crossover study in healthy subjects. Dosing was administered in the fasted state. Seventy-four (74) subjects were randomized into the study. All seventy-four subjects received one or more doses of study medication and are therefore included in the safety assessment. On Treatment Day 1 of the first treatment period, each subject was randomized to receive one of four possible study treatment sequences. The treatment groups consisted of the four treatments administered sequentially as DCAB, ADBC, BACD or CBDA. These treatments are shown below.\nA signed informed consent was obtained from each subject. For screening purposes, the following procedures were required of each subject and were performed by the clinical site within 30 days prior to the study: a complete physical examination including a medical history, vital signs, clinical laboratory safety tests on blood and urine, medications taken prior to and during the study, and a serum pregnancy test for female subjects.\nDuring the treatments, temperature, blood pressure, heart rate and respiratory rate were monitored as a safety measure. A physical examination and clinical laboratory tests were repeated at the completion of the study. Subjects were observed and questioned throughout the study for the occurrence of any adverse events.\nA total of 28 adverse events (AEs) were experienced; 27 were treatment emergent. Twenty-one (21) of these were assessed as related to study treatment. All related AEs are known to occur with trimethobenzamide and were primarily mild or moderate in intensity. One (1) severe AE occurred in one subject which was judged as unrelated to study treatment-severe pharyngitis. […] A summary of treatment emergent adverse events (AEs) is presented in Table 6 using the preferred medical term."}, "[2]": {"conditions": "cited from earlier work"}, "[3]": {"conditions": "in 48-72 hr; cited from earlier work"}}, "note": "Read-outs that look alike come from different tables or passages of the source."}
{"substance": "N-[2-(dimethylamino)-ethoxy]-3,4,5-trimethoxybenzamide hydrochloride [trimethobenzamide hydrochloride]", "values": [{"measurement": "PHARYNGITIS, subjects %", "setting": "[1]; sequence B A C D (N = 18)", "value": 0.0, "unit": "%"}, {"measurement": "PHARYNGITIS, subjects n", "setting": "[1]; sequence B A C D (N = 18)", "value": 0}, {"measurement": "RASH, subjects %", "setting": "[1]; sequence B A C D (N = 18)", "value": 5.6, "unit": "%"}, {"measurement": "RASH, subjects n", "setting": "[1]; sequence B A C D (N = 18)", "value": 1}, {"measurement": "ABDOMINAL PAIN, subjects %", "setting": "[1]; sequence C B D A (N = 18)", "value": 0.0, "unit": "%"}, {"measurement": "ABDOMINAL PAIN, subjects n", "setting": "[1]; sequence C B D A (N = 18)", "value": 0}, {"measurement": "CONJUNCTIVITIS, subjects %", "setting": "[1]; sequence C B D A (N = 18)", "value": 0.0, "unit": "%"}, {"measurement": "CONJUNCTIVITIS, subjects n", "setting": "[1]; sequence C B D A (N = 18)", "value": 0}, {"measurement": "DIARRHEA, subjects %", "setting": "[1]; sequence C B D A (N = 18)", "value": 5.6, "unit": "%"}, {"measurement": "DIARRHEA, subjects n", "setting": "[1]; sequence C B D A (N = 18)", "value": 1}, {"measurement": "DIZZINESS, subjects %", "setting": "[1]; sequence C B D A (N = 18)", "value": 0.0, "unit": "%"}, {"measurement": "DIZZINESS, subjects n", "setting": "[1]; sequence C B D A (N = 18)", "value": 0}, {"measurement": "EDEMA, PALMAR, subjects %", "setting": "[1]; sequence C B D A (N = 18)", "value": 0.0, "unit": "%"}, {"measurement": "EDEMA, PALMAR, subjects n", "setting": "[1]; sequence C B D A (N = 18)", "value": 0}, {"measurement": "ERYTHEMA, EXTERNAL NOSE, subjects %", "setting": "[1]; sequence C B D A (N = 18)", "value": 5.6, "unit": "%"}, {"measurement": "ERYTHEMA, EXTERNAL NOSE, subjects n", "setting": "[1]; sequence C B D A (N = 18)", "value": 1}, {"measurement": "ERYTHEMA, PALMAR, subjects %", "setting": "[1]; sequence C B D A (N = 18)", "value": 0.0, "unit": "%"}, {"measurement": "ERYTHEMA, PALMAR, subjects n", "setting": "[1]; sequence C B D A (N = 18)", "value": 0}, {"measurement": "HEADACHE, subjects %", "setting": "[1]; sequence C B D A (N = 18)", "value": 16.7, "unit": "%"}, {"measurement": "HEADACHE, subjects n", "setting": "[1]; sequence C B D A (N = 18)", "value": 3}, {"measurement": "HYPOTONIA, subjects %", "setting": "[1]; sequence C B D A (N = 18)", "value": 5.6, "unit": "%"}, {"measurement": "HYPOTONIA, subjects n", "setting": "[1]; sequence C B D A (N = 18)", "value": 1}, {"measurement": "INJECTION SITE REACTION, subjects %", "setting": "[1]; sequence C B D A (N = 18)", "value": 0.0, "unit": "%"}, {"measurement": "INJECTION SITE REACTION, subjects n", "setting": "[1]; sequence C B D A (N = 18)", "value": 0}, {"measurement": "LARYNGISMUS, subjects %", "setting": "[1]; sequence C B D A (N = 18)", "value": 0.0, "unit": "%"}, {"measurement": "LARYNGISMUS, subjects n", "setting": "[1]; sequence C B D A (N = 18)", "value": 0}, {"measurement": "LEG CRAMPS, subjects %", "setting": "[1]; sequence C B D A (N = 18)", "value": 0.0, "unit": "%"}, {"measurement": "LEG CRAMPS, subjects n", "setting": "[1]; sequence C B D A (N = 18)", "value": 0}, {"measurement": "NAUSEA AND VOMITING, subjects %", "setting": "[1]; sequence C B D A (N = 18)", "value": 0.0, "unit": "%"}, {"measurement": "NAUSEA AND VOMITING, subjects n", "setting": "[1]; sequence C B D A (N = 18)", "value": 0}, {"measurement": "NAUSEA, subjects %", "setting": "[1]; sequence C B D A (N = 18)", "value": 0.0, "unit": "%"}, {"measurement": "NAUSEA, subjects n", "setting": "[1]; sequence C B D A (N = 18)", "value": 0}, {"measurement": "Number of Subject With At Least one AE, %", "setting": "[1]; sequence C B D A (N = 18)", "value": 22.2, "unit": "%"}, {"measurement": "Number of Subject With No AE, %", "setting": "[1]; sequence C B D A (N = 18)", "value": 77.8, "unit": "%"}, {"measurement": "PARESTHESIA, subjects %", "setting": "[1]; sequence C B D A (N = 18)", "value": 0.0, "unit": "%"}, {"measurement": "PARESTHESIA, subjects n", "setting": "[1]; sequence C B D A (N = 18)", "value": 0}, {"measurement": "PHARYNGITIS, subjects %", "setting": "[1]; sequence C B D A (N = 18)", "value": 0.0, "unit": "%"}, {"measurement": "PHARYNGITIS, subjects n", "setting": "[1]; sequence C B D A (N = 18)", "value": 0}, {"measurement": "RASH, subjects %", "setting": "[1]; sequence C B D A (N = 18)", "value": 0.0, "unit": "%"}, {"measurement": "RASH, subjects n", "setting": "[1]; sequence C B D A (N = 18)", "value": 0}, {"measurement": "ABDOMINAL PAIN, subjects %", "setting": "[1]; sequence D C A B (N = 18)", "value": 0.0, "unit": "%"}, {"measurement": "ABDOMINAL PAIN, subjects n", "setting": "[1]; sequence D C A B (N = 18)", "value": 0}, {"measurement": "CONJUNCTIVITIS, subjects %", "setting": "[1]; sequence D C A B (N = 18)", "value": 0.0, "unit": "%"}, {"measurement": "CONJUNCTIVITIS, subjects n", "setting": "[1]; sequence D C A B (N = 18)", "value": 0}, {"measurement": "DIARRHEA, subjects %", "setting": "[1]; sequence D C A B (N = 18)", "value": 0.0, "unit": "%"}, {"measurement": "DIARRHEA, subjects n", "setting": "[1]; sequence D C A B (N = 18)", "value": 0}, {"measurement": "DIZZINESS, subjects %", "setting": "[1]; sequence D C A B (N = 18)", "value": 0.0, "unit": "%"}, {"measurement": "DIZZINESS, subjects n", "setting": "[1]; sequence D C A B (N = 18)", "value": 0}, {"measurement": "EDEMA, PALMAR, subjects %", "setting": "[1]; sequence D C A B (N = 18)", "value": 0.0, "unit": "%"}, {"measurement": "EDEMA, PALMAR, subjects n", "setting": "[1]; sequence D C A B (N = 18)", "value": 0}, {"measurement": "ERYTHEMA, EXTERNAL NOSE, subjects %", "setting": "[1]; sequence D C A B (N = 18)", "value": 0.0, "unit": "%"}, {"measurement": "ERYTHEMA, EXTERNAL NOSE, subjects n", "setting": "[1]; sequence D C A B (N = 18)", "value": 0}, {"measurement": "ERYTHEMA, PALMAR, subjects %", "setting": "[1]; sequence D C A B (N = 18)", "value": 0.0, "unit": "%"}, {"measurement": "ERYTHEMA, PALMAR, subjects n", "setting": "[1]; sequence D C A B (N = 18)", "value": 0}, {"measurement": "HEADACHE, subjects %", "setting": "[1]; sequence D C A B (N = 18)", "value": 16.7, "unit": "%"}, {"measurement": "HEADACHE, subjects n", "setting": "[1]; sequence D C A B (N = 18)", "value": 3}, {"measurement": "HYPOTONIA, subjects %", "setting": "[1]; sequence D C A B (N = 18)", "value": 0.0, "unit": "%"}, {"measurement": "HYPOTONIA, subjects n", "setting": "[1]; sequence D C A B (N = 18)", "value": 0}, {"measurement": "INJECTION SITE REACTION, subjects %", "setting": "[1]; sequence D C A B (N = 18)", "value": 0.0, "unit": "%"}, {"measurement": "INJECTION SITE REACTION, subjects n", "setting": "[1]; sequence D C A B (N = 18)", "value": 0}, {"measurement": "LARYNGISMUS, subjects %", "setting": "[1]; sequence D C A B (N = 18)", "value": 0.0, "unit": "%"}, {"measurement": "LARYNGISMUS, subjects n", "setting": "[1]; sequence D C A B (N = 18)", "value": 0}, {"measurement": "LEG CRAMPS, subjects %", "setting": "[1]; sequence D C A B (N = 18)", "value": 5.6, "unit": "%"}, {"measurement": "LEG CRAMPS, subjects n", "setting": "[1]; sequence D C A B (N = 18)", "value": 1}, {"measurement": "NAUSEA AND VOMITING, subjects %", "setting": "[1]; sequence D C A B (N = 18)", "value": 0.0, "unit": "%"}, {"measurement": "NAUSEA AND VOMITING, subjects n", "setting": "[1]; sequence D C A B (N = 18)", "value": 0}, {"measurement": "NAUSEA, subjects %", "setting": "[1]; sequence D C A B (N = 18)", "value": 0.0, "unit": "%"}, {"measurement": "NAUSEA, subjects n", "setting": "[1]; sequence D C A B (N = 18)", "value": 0}, {"measurement": "Number of Subject With At Least one AE, %", "setting": "[1]; sequence D C A B (N = 18)", "value": 27.8, "unit": "%"}, {"measurement": "Number of Subject With No AE, %", "setting": "[1]; sequence D C A B (N = 18)", "value": 72.2, "unit": "%"}, {"measurement": "PARESTHESIA, subjects %", "setting": "[1]; sequence D C A B (N = 18)", "value": 5.6, "unit": "%"}, {"measurement": "PARESTHESIA, subjects n", "setting": "[1]; sequence D C A B (N = 18)", "value": 1}, {"measurement": "PHARYNGITIS, subjects %", "setting": "[1]; sequence D C A B (N = 18)", "value": 0.0, "unit": "%"}, {"measurement": "PHARYNGITIS, subjects n", "setting": "[1]; sequence D C A B (N = 18)", "value": 0}, {"measurement": "RASH, subjects %", "setting": "[1]; sequence D C A B (N = 18)", "value": 0.0, "unit": "%"}, {"measurement": "RASH, subjects n", "setting": "[1]; sequence D C A B (N = 18)", "value": 0}, {"measurement": "DURATION", "setting": "[2]; IM", "value": "2 to 3", "unit": "h"}, {"measurement": "ONSET", "setting": "[2]; IM", "value": "15 to 35", "unit": "min"}, {"measurement": "DURATION", "setting": "[2]; PO", "value": "3 to 4", "unit": "h"}, {"measurement": "ONSET", "setting": "[2]; PO", "value": "10 to 40", "unit": "min"}, {"measurement": "DURATION", "setting": "[2]; Rect", "value": "3 to 4", "unit": "h"}, {"measurement": "ONSET", "setting": "[2]; Rect", "value": "10 to 40", "unit": "min"}, {"measurement": "drug excreted unchanged in the urine", "setting": "[3]", "value": "30%-50%"}]}
